In ChEMBL document CHEMBL4808171, “Structure-Activity Relationship Study and Biological Evaluation of 2-(Disubstituted phenyl)-indole-5-propanoic Acid Derivatives as GPR40 Full Agonists” (J Med Chem, 2021):
Active and inactive are the calls of the source. The rule behind the calls is not given here.

Key:
[1] = biological target: Free fatty acid receptor 1 (Homo sapiens, UniProt O14842); assay: Agonist activity at GPR40 (unknown origin) expressed in CHO cells co-expressing luc2P/SRE assessed as firefly luciferase activity at 10 uM incubated for 24 hrs hrs by Bright-Glo based serum response element (SRE) luciferase reporter assay relative to TAK875; type: functional, cell-based
Chain of Free fatty acid receptor 1 (O14842 whole entry): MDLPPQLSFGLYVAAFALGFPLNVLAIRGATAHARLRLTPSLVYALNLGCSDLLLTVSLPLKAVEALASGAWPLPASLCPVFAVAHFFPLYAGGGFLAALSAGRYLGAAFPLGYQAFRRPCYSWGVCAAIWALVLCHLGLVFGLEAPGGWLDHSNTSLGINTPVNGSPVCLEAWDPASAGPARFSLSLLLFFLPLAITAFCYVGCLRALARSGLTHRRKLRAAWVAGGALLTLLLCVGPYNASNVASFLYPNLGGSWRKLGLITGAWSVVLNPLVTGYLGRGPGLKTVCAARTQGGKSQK

[2] = biological target: T1, Peroxisome proliferator-activated receptor gamma (Homo sapiens, UniProt P37231); assay: Agonist activity at human PPARgamma expressed in CHO cells assessed as increase in receptor transcriptional activity incubated for 24 hrs by dual luciferase reporter gene assay; type: cell-based
T1 sequence (P37231 whole entry): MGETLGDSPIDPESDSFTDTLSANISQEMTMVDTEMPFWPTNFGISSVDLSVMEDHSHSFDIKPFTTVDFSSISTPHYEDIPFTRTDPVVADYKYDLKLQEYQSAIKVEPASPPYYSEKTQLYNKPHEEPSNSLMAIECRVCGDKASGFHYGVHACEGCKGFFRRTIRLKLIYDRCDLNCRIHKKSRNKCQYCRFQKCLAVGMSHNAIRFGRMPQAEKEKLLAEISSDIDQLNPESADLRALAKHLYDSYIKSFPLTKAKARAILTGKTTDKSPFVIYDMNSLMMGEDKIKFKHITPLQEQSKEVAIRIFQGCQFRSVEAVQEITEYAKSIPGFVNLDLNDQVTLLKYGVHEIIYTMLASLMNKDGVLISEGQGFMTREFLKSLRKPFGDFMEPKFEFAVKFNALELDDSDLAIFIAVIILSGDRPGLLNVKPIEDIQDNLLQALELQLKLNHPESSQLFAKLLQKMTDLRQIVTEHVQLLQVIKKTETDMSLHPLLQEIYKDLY

[3] = biological target: T2, Peroxisome proliferator-activated receptor gamma (Homo sapiens) (UniProt P37231); assay: Agonist activity at human PPARgamma expressed in CHO cells assessed as increase in receptor transcriptional activity at 1 uM incubated for 24 hrs by dual luciferase reporter gene assay relative to rosiglitazone; type: cell-based
T2 sequence (whole entry): T1 sequence (P37231 whole entry)

STC1 = assay: Induction of GLP-1 secretion in […] STC1 cells at 100 uM after 1 hrs by ELISA; type: functional, cell-based

Emax ([1]; filed as agonist) [%] | Emax [1] [%] | Emax [3] [%] | Compound | other results
109 |  |  | Cc1cc(Cl)ccc1-c1cc2cc(CCC(=O)O)ccc2[nH]1 | EC50 ([2]; read-out: EC50): 27.8 µM; Emax ([3]; filed as agonist): 104%
 | 22.8 | 2.69 | O=C(O)CCc1ccc2[nH]c(-c3cc(Cl)ccc3Cl)cc2c1 | 
81.2 |  | 12.8 | O=C(O)CCc1ccc2[nH]c(-c3cccc(Cl)c3Cl)cc2c1 | 
109 |  |  | Cc1c(Cl)cccc1-c1cc2cc(CCC(=O)O)ccc2[nH]1 | EC50 ([2]; cho): Not Active
78.3 |  | 11.5 | O=C(O)CCc1ccc2[nH]c(-c3c(Cl)cccc3Cl)cc2c1 | 
 | 6.81 | 18.2 | O=C(O)CCc1ccc2[nH]c(-c3cccc(Cl)c3F)cc2c1 | 
48 |  | 5.39 | O=C(O)CCc1ccc2[nH]c(-c3ccc(Cl)cc3Cl)cc2c1 | 
 | 35 | 18.3 | Cc1ccc(Cl)cc1-c1cc2cc(CCC(=O)O)ccc2[nH]1 | 
69.5 |  | 0.52 | Cc1cccc(C)c1-c1cc2cc(CCC(=O)O)ccc2[nH]1 | 
95.3 |  | 30.6 | Cc1cc(Br)ccc1-c1cc2cc(CCC(=O)O)ccc2[nH]1 | 

More lines, now with the values behind:

Compound | Emax ([1]; filed as agonist) [%] | Emax [1] [%] | Emax [3] [%] | other results
Cc1ccc(C)c(-c2cc3cc(CCC(=O)O)ccc3n2C)c1 |  | 20.3 | 0.01 | 
O=C(O)CCc1ccc2[nH]c(-c3ccc(Cl)cc3F)cc2c1 |  | 2.18 | 3.64 | 
O=C(O)CCc1ccc2[nH]c(-c3ccncc3Cl)cc2c1 |  | 24.7 | 0.19 | 
Cc1ccc(-c2cc3cc(CCC(=O)O)ccc3[nH]2)c(C)c1 | 61.8 |  | 2.51 | 
Cc1cc(F)ccc1-c1cc2cc(CCC(=O)O)ccc2n1C |  | 16.9 | 6.32 | 
CCCCC/C=C\C/C=C\CCCCCCCC(=O)O |  |  |  | Activity (STC1): Active
O=C(O)CCc1ccc2[nH]c(-c3ccc(Cl)cc3C(F)(F)F)cc2c1 |  | 7.67 | 15.9 | 
